From paper PMC6954720, “Discovery of retinoic acid receptor agonists as proliferators of cardiac progenitor cells through a phenotypic screening approach” (Stem Cells Translational Medicine, 2019)
Entries after “also recorded” stand apart in the source; their conditions may differ. Like-named read-outs stand apart in the source and are kept apart here.

How the values were obtained:
[1] = test system: human iPS-derived cardiac progenitor cells (CPCs); experiment: CPC proliferation assay (nuclear count); type: cell-based; details: for % Effect-normalised cell count: primary screen, relative to basic FGF 100 ng/mL
Procedure: (§1) The CPC proliferation assay including image and data analysis was performed as previously described.14 Cardiac progenitor marker antibodies are listed in Table S3.
A library of 10 000 compounds was screened in singlicate at three concentrations (0.1, 1.0, and 10 μM) in the CPC proliferation assay. Each plate contained neutral controls, 0.1% DMSO and maximum controls, 100 ng/mL human basic fibroblast growth factor (FGF; Invitrogen, ThermoFisher Scientific, Waltham, Massachusetts). The data were analyzed using the Genedata Screener software (Genedata, Inc, Basel, Switzerland). […] Results were calculated using the following calculation method: compound % effect = 100 × [(X − min)/(max − min)], where X represents a normalized value for the compound based on the neutral and maximum controls.
The library was screened in three‐point concentration response (CR) at 0.1, 1.0, and 10 μM measuring proliferation of human induced pluripotent stem (iPS)‐derived CPCs with nuclear count, as measured by Hoechst staining, as the primary endpoint.

[2] = biological target: T1, RARA (alpha) ligand binding domain (Homo sapiens, UniProt P10276); experiment: RAR LBD-SRC1-2 coactivator peptide recruitment assay, agonist format, RARA; type: biochemical; details: for EC50: read-out: RARα pEC50 (converted)
T1 sequence (P10276 183-417 limits assumed): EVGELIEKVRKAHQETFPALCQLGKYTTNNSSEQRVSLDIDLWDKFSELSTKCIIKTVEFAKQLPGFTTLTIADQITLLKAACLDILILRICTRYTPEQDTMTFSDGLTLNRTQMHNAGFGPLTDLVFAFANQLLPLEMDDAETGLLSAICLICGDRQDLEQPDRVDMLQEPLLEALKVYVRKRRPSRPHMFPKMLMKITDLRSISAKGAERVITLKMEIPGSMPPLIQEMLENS
Procedure: (§2) RAR ligand binding domain (LBD)‐SRC1‐2 coactivator peptide (NCOA1_677‐700 biotinylated) recruitment assays were established for the three RAR isotypes RARA (alpha), RARB (beta), and RARG (gamma) to determine relative potencies. […] A total of 0.4 μL of a fixed concentration range of test ligands dissolved in dimethyl sulphoxide (DMSO) was added to assay plates using an acoustic liquid dispenser. […] The raw data were transformed to % effect using the equation: compound % effect = 100 × [(X − min)/(max − min)], where X represents the effect in the presence of test compound and max and min are the effects in presence of the maximum and minimum controls, respectively.
(§3) The data were plotted to generate concentration‐response profiles and the concentration‐response curves were fit to the data using the four‐parameter logistic smart fit method in the Genedata Screener software (Genedata, Inc).

[3] = biological target: T2, RARG (gamma) ligand binding domain (Homo sapiens, UniProt P13631); experiment: RAR coactivator peptide recruitment assay, antagonist format, RARG; type: biochemical; details: for IC50: 10 nM R-667, read-out: RARγ pIC50 (converted)
T2 sequence (P13631 185-419 limits assumed): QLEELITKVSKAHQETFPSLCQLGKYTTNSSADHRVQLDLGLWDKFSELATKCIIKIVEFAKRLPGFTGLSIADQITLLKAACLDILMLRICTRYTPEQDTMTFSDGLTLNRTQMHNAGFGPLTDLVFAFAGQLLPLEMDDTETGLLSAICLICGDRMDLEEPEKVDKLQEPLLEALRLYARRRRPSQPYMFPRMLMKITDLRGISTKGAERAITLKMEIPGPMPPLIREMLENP
Procedure: as §2, §3

[4] = biological target: T2, RARG (gamma) ligand binding domain; experiment: RAR LBD-SRC1-2 coactivator peptide recruitment assay, agonist format, RARG; type: biochemical; details: for EC50: read-out: RARγ pEC50 (converted)
Procedure: as §2, §3

[5] = biological target: T3, RARB (beta) ligand binding domain (Homo sapiens, UniProt P10826); experiment: RAR coactivator peptide recruitment assay, antagonist format, RARB; type: biochemical; details: for IC50: read-out: RARβ pIC50 (converted)
T3 sequence (P10826 183-417 limits assumed): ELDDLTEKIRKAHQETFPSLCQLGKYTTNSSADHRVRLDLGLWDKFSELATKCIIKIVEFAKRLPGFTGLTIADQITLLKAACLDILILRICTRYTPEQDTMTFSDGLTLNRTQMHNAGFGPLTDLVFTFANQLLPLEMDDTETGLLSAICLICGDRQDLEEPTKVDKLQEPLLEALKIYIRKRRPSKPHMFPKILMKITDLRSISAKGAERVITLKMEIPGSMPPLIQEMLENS
Procedure: as §2, §3

RAR = RAR coactivator recruitment assay (isotypes not separated); type: biochemical
Procedure: as §2, §3

[6] = biological target: T1, RARA (alpha) ligand binding domain; experiment: RAR coactivator peptide recruitment assay, antagonist format, RARA; type: biochemical; details: for IC50: read-out: RARα pIC50 (converted)
Procedure: as §2, §3

[7] = biological target: T3, RARB (beta) ligand binding domain; experiment: RAR LBD-SRC1-2 coactivator peptide recruitment assay, agonist format, RARB; type: biochemical; details: for EC50: read-out: RARβ pEC50 (converted)
Procedure: as §2, §3

[8] = test system: human iPS-derived cardiac progenitor cells (CPCs); experiment: CPC proliferation assay (nuclear count); type: cell-based; details: 10-point concentration response
[9] = test system: HuES6 hPSC-derived cardiac progenitors; experiment: HuES6-derived cardiac progenitors replated on day 5: cell number, RT-qPCR, immunocytochemistry; type: cell-based, human; details: for terminal cardiac differentiation, in words / expression of cardiac progenitor markers vs untreated: 1 μM, day-5 replated cells, 4 days; for expression of cardiac progenitor markers vs untreated: with the exception of ISL1; for effect on cell proliferation / cell numbers, in words: 1.0 μM, day-5 replated progenitors, 4 days of exposure
Procedure: Insulin and signaling agonists were omitted after 1 day. On days 2‐3, the nascent mesodermal cells were specified to the cardiac lineage using 0.2 μM C‐59 (R&D Tocris) supplementation. Culture medium was replaced daily.
Basal cardiac progenitor medium was composed of DMEM/F12 (ThermoFisher Scientific), insulin/transferrin/selenium supplement, 0.1% human serum albumin (Biological Industries Inc, Cromwell, Connecticut), 1× chemically defined lipids (ThermoFisher Scientific), and antibiotics. RAR agonists (1 μM) were added from the day of passaging the cells. Samples were harvested and monitored after 4 days of treatment.
Cell numbers per well were quantified following single‐cell dissociation with Accutase and using standard Neubauer counting chambers. RT‐qPCR and immunocytochemistry were performed according to standard procedures. RPL37A served as housekeeping gene for normalization.

iPS-derived CPCs [10] = experiment: Cardiac progenitor marker antibody staining of treated CPCs; type: cell-based, human; details: 40 nM, 3 days
Procedure: as §1
A key requirement of the screen was that the expanded CPCs must retain their progenitor phenotype.
Figure 2 Cardiac progenitor cells (CPCs) retain progenitor markers after retinoic acid receptor agonist treatment. […] Larger images are representative merged images of Hoechst nuclear stain in blue and immunofluorescence of the indicated progenitor marker in green. Insets show the progenitor marker staining in gray scale at 3.3‐fold higher magnification. Scale bars: 50 μm

iPS-derived CPCs [11] = details: absence of RAR agonist
Text: Cells were fixed and nuclei stained on day 4 postplating and 3 days postcompound addition. […] The data represent the mean of two independent experiments each conducted in quadruplicate; error bars indicate SEM. […] The data for CPCs and CFs are obtained from two independent RNA preparations from each cell type

[12] = test system: human cardiac fibroblasts (CFs); experiment: CF proliferation assay (nuclear count)
Procedure: To ensure that these molecules were not general proliferators of all cardiac cells, they were also tested in a human CF proliferation assay31 using nuclear count as the endpoint.

[13] = test system: RAR-responsive genes in CPCs; experiment: RNA seq analysis of AM580-treated CPCs; type: cell-based, human; details: 4-hour and 24-hour time points
Procedure: CPC was seeded in fibronectin‐coated 24‐well plates, 150 000 cells in 0.5 mL media per well. […] Cell media were removed after 4 hours or 24 hours, and the cells were lysed for RNA preparation using the MagMax Total RNA Isolation kit. Triplicate samples were prepared for each treatment and time point. RNA integrity and concentration were analyzed on a fragment analyzer with the standard sensitivity RNA kit (Agilent, Santa Clara, California). RNA quality number was 8.2 on average.
A total of 1000 ng RNA per sample was processed with the TruSeq stranded mRNA kit (Illumina, San Diego, California) following the instructions from the manufacturer. […] Samples were pooled, diluted, and denatured according to Illumina's recommendations and sequenced on a NextSeq500 (High 150 cycles kit, reading 2 × 75 cycles). On average, samples had 13M reads with 93% of reads with >Q30.
RNA‐Seq data were processed using the bcbio pipeline version 0.9.7. Hisat2 version 2.0.2‐β aligner was used to align reads to the human genome version hg38. […] Differential expression analysis was performed on feature counts using DESeq2.32 Data quality was assessed using MultiQC.33 Genes with the lowest expression levels (less than five counts in at least two samples) were removed prior to differential expression estimation since they can be considered as nonexpressed.

[14] = iPSC-derived CPC proliferation, read-out: CPC pEC50 (converted)

Compound | EC50 [2] | IC50 [3] | EC50 [4] | IC50 [5] | IC50 [6] | EC50 [7] | RARγ pEC50 (% top effect): % top effect [4] | maximal effect (% top effect) [7] | CPC proliferation, result in words [1] | EC50 [8, 14] | terminal cardiac differentiation, in words [9] | expression of cardiac progenitor markers vs untreated [9] | effect on cell proliferation / cell numbers, in words [9] | further results
CC1(C)CCC(C)(C)c2cc(C#Cc3ccc(C(=O)O)cc3)ccc21 [EC 23] | – | – | – | – | – | – | – | – | EC50 values in the low nanomolar range | 1.26 nM | pronounced inhibition of terminal cardiac differentiation | enhanced the expression of cardiac progenitor markers | strong positive effects on cell proliferation | –
C/C(=C\c1ccc(C(=O)O)cc1)c1ccc2c(c1)C(C)(C)CCC2(C)C [TTNPB] | – | – | – | – | – | – | – | – | EC50 values in the low nanomolar range | 3.16 nM | pronounced inhibition of terminal cardiac differentiation | enhanced the expression of cardiac progenitor markers | strong positive effects on cell proliferation | –
CC1(C)CCC(C)(C)c2cc(NC(=O)c3ccc(C(=O)O)cc3)ccc21 [AM80] | – | – | – | – | – | – | 119% | 149% | EC50 values in the low nanomolar range | 7.94 nM | pronounced inhibition of terminal cardiac differentiation | enhanced the expression of cardiac progenitor markers | strong positive effects on cell proliferation | expression of cardiac progenitor markers Nkx2.5, Islet1, Gata4, PDGFRα after treatment (iPS-derived CPCs [10]): retain expression
CC1=C(/C=C/C(C)=C\C=C\C(C)=C\C(=O)O)C(C)(C)CCC1 [9‐cis‐retinoic acid] | – | – | – | – | – | – | – | – | inactive | > 10000 nM | – | – | – | –
Cc1ccc(C2=CC(C)(C)Oc3c(Br)cc(C(=O)Nc4ccc(C(=O)O)c(F)c4)cc32)cc1 [AGN 194301] | > 20 µM | 0.02 µM | > 20 µM | 0.00126 µM | 0.00251 µM | > 20 µM | – | – | – | > 10000 nM | – | – | – | RARγ pIC50 (% top effect): % top effect ([3]; 10 nM R-667): 106%; effect on CPC proliferation of antagonist alone (iPS-derived CPCs [11]): did not proliferate the cells; also recorded: no effect on proliferation; toxicity to CPCs (iPS-derived CPCs [11]): no signs of toxicity; RARβ pIC50 (% top effect): % top effect ([5]; antagonist format, 10 nM TTNPB): 105%; RARα pIC50 (% top effect): % top effect ([6]; antagonist format, 10 nM ATRA): 108%
Cc1cc2c(cc1-c1cc(/C=C/C(=O)O)ccc1O)C(C)(C)CCC2(C)C [CD 3254] | > 20 µM | > 20 µM | > 20 µM | > 20 µM | > 20 µM | > 20 µM | – | – | inactive | > 10000 nM | – | – | – | –

The next lines start with results.

EC50 [2] | IC50 [3] | EC50 [4] | IC50 [5] | IC50 [6] | EC50 [7] | RARγ pEC50 (% top effect): % top effect [4] | maximal effect (% top effect) [7] | Compound | CPC proliferation, result in words [1] | EC50 [8, 14] | terminal cardiac differentiation, in words [9] | expression of cardiac progenitor markers vs untreated [9] | effect on cell proliferation / cell numbers, in words [9] | further results
> 20 µM | > 20 µM | > 20 µM | > 20 µM | > 20 µM | > 20 µM | – | – | CC1=C(/C=C/C(C)=C/C=C/C(C)=C/CO)C(C)(C)CCC1 [Retinol] | no effect | > 10000 nM | – | – | – | activity in RAR coactivator recruitment assay, in words (RAR): inactive
> 20 µM | – | > 20 µM | > 20 µM | > 20 µM | > 20 µM | – | – | CC1(C)CCC(C)(C)c2cc(C3(c4ccc(C(=O)O)cc4)OCCO3)ccc21 [SR 11237] | inactive | > 10000 nM | – | – | – | –
– | – | – | – | – | – | 99% | 104% | CC1(C)CCC(C)(C)c2cc(C(=O)Nc3ccc(C(=O)O)cc3)ccc21 [AM580] | – | 6.31 nM | – | – | – | % Effect-normalised cell count ([1]; Log Concentration M -5 (10 μM)): 49.6%; % Effect-normalised cell count ([1]; Log Concentration M -6 (1.0 μM)): 76.4%; % Effect-normalised cell count ([1]; Log Concentration M -7 (0.1 μM)): 106%; CF proliferation, result in words [12]: inactive; mRNA expression of RAR-responsive genes (RARB, RBP1, CRABP2, CYP26A1) [13]: significant increase; expression of cardiac progenitor markers Nkx2.5, Islet1, Gata4, PDGFRα after treatment (iPS-derived CPCs [10]): retain expression; EC50 ([8]; read-out: EC50, CPC proliferation): 5 nM
0.00398 µM | – | 0.1 µM | – | – | 0.01 µM | 88% | 100% | CC1(C)CCC(C)(C)c2cc(C(=O)Nc3ccc(C(=O)O)c(F)c3)ccc21 [AGN 193312] | EC50 values in the low nanomolar range | 7.94 nM | – | – | – | top effect (% of maximum control) [2]: 159%
